Consider twelve compounds from ChEMBL document CHEMBL4342418, “1,2,3-Triazole-containing hybrids as potential anticancer agents: Current developments, action mechanisms and structure-activity relationships” (Eur J Med Chem, 2019).

Structures are written as SMILES. In brackets after ≈: the same amount, converted by molar mass.

One assay deals with MDA-MB-231. The experiment in a line: Antiproliferative activity against human MDA-MB-231 cells by MTT assay. In kind it is functional, cell-based. For orientation: Tetrazolium assays rely on reduction of a dye to a coloured formazan, in cell work by metabolically active cells.
Another assay relates to HEK293. The experiment in a line: Cytotoxicity against HEK293 cells by MTT assay. The conditions noted are these: Homo sapiens. In kind it is cell-based.
A further assay has as its system HBL-100. The experiment in a line: Antiproliferative activity against human HBL100 cells assessed as reduction in cell viability after 48 hrs by MTT assay. In kind it is functional, cell-based. The conditions noted are these: HBL-100, 48 h.
The subject of assay [1] is A549. The experiment in a line: Antiproliferative activity against human A549 cells assessed as reduction in cell viability after 48 hrs by MTT assay. In kind it is functional, cell-based. The following applies: A549, 48 h.
The test system of assay [2] is HCT-116. The experiment in a line: Antiproliferative activity against human HCT116 cells assessed as reduction in cell viability after 48 hrs by MTT assay. The following applies: HCT-116, 48 h. In kind it is functional, cell-based.
The test system of assay [3] is HT-29. As to the kind of experiment: Antiproliferative activity against human HT-29 cells assessed as reduction in cell viability after 48 hrs by MTT assay. Type of assay: functional, cell-based. The following applies: HT-29, 48 h.
Assay [4] relates to A549. As to the kind of experiment: Antiproliferative activity against human A549 cells assessed as reduction in cell viability after 48 hrs by SRB assay. The following applies: A549, 48 h. Type of assay: functional, cell-based. Background: Sulforhodamine B stains cellular protein and so reports cell mass.
In assay [5] the test system is HCT-116. The experiment in a line: Antiproliferative activity against human HCT116 cells assessed as reduction in cell viability after 48 hrs by SRB assay. Type of assay: functional, cell-based. The following applies: HCT-116, 48 h.
The test system of assay [6] is HT-29. The experiment in a line: Antiproliferative activity against human HT-29 cells assessed as reduction in cell viability after 48 hrs by SRB assay. In kind it is functional, cell-based. The following applies: HT-29, 48 h.
The test system of assay [7] is MCF7. The experiment in a line: Antiproliferative activity against human MCF7 cells assessed as reduction in cell viability after 48 hrs by SRB assay. Type of assay: functional, cell-based. The conditions noted are these: MCF7, 48 h.
Assay [8] deals with DU-145. The experiment in a line: Antiproliferative activity against human DU145 cells by MTT assay. Type of assay: functional, cell-based.
Assay [9] relates to A549. As to the kind of experiment: cells. Type of assay: functional, cell-based. The conditions noted are these: Homo sapiens.
Description: Antiproliferative activity against human A549 cells by MTT assay
Assay [10] concerns HT-29. The experiment in a line: Antiproliferative activity against human HT-29 cells by MTT assay. Type of assay: functional, cell-based.
Another assay relates to MV4-11. As to the kind of experiment: Antiproliferative activity against human MV4-11 cells by MTT assay. Type of assay: functional, cell-based.
For the next assay, the system named is MCF-10A. The experiment in a line: Cytotoxicity against human MCF10A cells by MTT assay. In kind it is cell-based.
The subject of assay [11] is MCF7. As to the kind of experiment: cells. Type of assay: functional, cell-based. The conditions noted are these: Homo sapiens.
Description: Antiproliferative activity against human MCF7 cells by MTT assay
Another assay concerns SW480. As to the kind of experiment: Antiproliferative activity against human SW480 cells assessed as reduction in cell viability after 48 hrs by MTT assay. Type of assay: functional, cell-based. The conditions noted are these: SW480, 48 h.
A further assay has as its system SK-OV-3. As to the kind of experiment: Antiproliferative activity against human SKOV3 cells by SRB assay. Type of assay: functional, cell-based.
Another assay deals with KB. As to the kind of experiment: Antiproliferative activity against human KB cells by MTT assay. Type of assay: functional, cell-based.
For assay [12], the system named is HepG2. As to the kind of experiment: Antiproliferative activity against human HepG2 cells by MTT assay. Type of assay: functional, cell-based.
In assay [13] the test system is A549. As to the kind of experiment: Antiproliferative activity against human A549 cells by SRB assay. In kind it is functional, cell-based.
Assay [14] concerns MCF7. As to the kind of experiment: Antiproliferative activity against human MCF7 cells by SRB assay. Type of assay: functional, cell-based.
The test system of assay [15] is DU-145. As to the kind of experiment: Antiproliferative activity against human DU145 cells by SRB assay. Type of assay: functional, cell-based.
Assay [16] has as its system HeLa. The experiment in a line: Antiproliferative activity against human HeLa cells by SRB assay. Type of assay: functional, cell-based.
The test system of a further assay is HL-60. As to the kind of experiment: Antiproliferative activity against human HL60 cells assessed as reduction in cell viability after 48 hrs by MTT assay. In kind it is functional, cell-based. The conditions noted are these: HL-60, 48 h.
The next assay relates to T47D. As to the kind of experiment: Antiproliferative activity against human T47D cells assessed as reduction in cell viability after 72 hrs by MTT assay. In kind it is functional, cell-based.
For assay [17], the system named is DU-145. The experiment in a line: Antiproliferative activity against human DU145 cells assessed as reduction in cell viability after 48 hrs by MTT assay. The conditions noted are these: DU-145, 48 h. In kind it is functional, cell-based.
Assay [18] concerns MCF7. As to the kind of experiment: Antiproliferative activity against human MCF7 cells assessed as reduction in cell viability after 72 hrs by MTT assay. In kind it is functional, cell-based. The conditions noted are these: MCF7, 72 h.
A short description of assay [19]: Antiproliferative activity against human SMCC7721 cells assessed as reduction in cell viability after 48 hrs by MTT assay. In kind it is functional, cell-based.
Assay [20] relates to MCF7. As to the kind of experiment: Antiproliferative activity against human MCF7 cells assessed as reduction in cell viability after 48 hrs by MTT assay. In kind it is functional, cell-based. The conditions noted are these: MCF7, 48 h.
A further assay relates to MCF7-DOX. As to the kind of experiment: Antiproliferative activity against human MCF7/Dox cells by SRB assay. In kind it is functional, cell-based.
The test system of assay [21] is HepG2. The experiment in a line: Antiproliferative activity against human HepG2 cells by SRB assay. Type of assay: functional, cell-based.
Assay [22] deals with HepG2. As to the kind of experiment: Antiproliferative activity against human HepG2 cells assessed as reduction in cell viability after 72 hrs by MTT assay. The following applies: HepG2, 72 h. In kind it is functional, cell-based.
Assay [23] relates to A549. The experiment in a line: Antiproliferative activity against human A549 cells assessed as reduction in cell viability after 72 hrs by MTT assay. Type of assay: functional, cell-based. The following applies: A549, 72 h.
In another assay the test system is PC-3. The experiment in a line: cells. Type of assay: functional, cell-based. The conditions noted are these: Homo sapiens, PC-3, 48 h.
Another assay concerns HGC-27. As to the kind of experiment: Antiproliferative activity against human HGC27 cells assessed as reduction in cell viability after 48 hrs by MTT assay. The conditions noted are these: HGC-27, 48 h. In kind it is functional, cell-based.
Assay [24] concerns HeLa. As to the kind of experiment: Antiproliferative activity against human HeLa cells by MTT assay. Type of assay: functional, cell-based.

Description for PC-3: Antiproliferative activity against human PC3 cells assessed as reduction in cell viability after 48 hrs by MTT assay

Regarding `COC(=O)c1ccc(-n2nc(N)c(C(=O)NCCNC(=O)c3nn(-c4ccc(C(=O)OC)cc4)nc3N)n2)cc1`, the half-inhibitory concentration (IC50) is 12 µM in the assay on MDA-MB-231 and more than 50 µM in the assay on HEK293.
As to `C[C@@H]1CC[C@@]2(OC1)O[C@H]1C[C@H]3[C@@H]4CC=C5C[C@@H](OCc6cn(-c7ccccc7C#N)nn6)CC[C@]5(C)[C@H]4CC[C@]3(C)[C@H]1[C@@H]2C`, the IC50 with HBL-100, in the assay on A549 [1], in the assay with HCT-116 [2] and in the assay on HT-29 [3] was 5.16 to 9.44 µM in each case.
As to `O=C(/C=C/c1cn(-c2ccccc2)nc1-c1ccccc1)OCc1cn(-c2ccc([N+](=O)[O-])cc2)nn1`, the IC50 in the assay on A549 [4], in the assay on HCT-116 [5], in the assay on HT-29 [6] and with MCF7 [7] was 1.76 to 9.46 µM each time.
Turning to `C=CCC1CN2CCC1CC2[C@H](O)c1ccnc2ccc(-c3cn(-c4ccccc4)nn3)cc12` (some centres undefined), the concentration for half-maximal inhibition (IC50) in the assay on DU-145 [8], with A549 [9], with HT-29 [10], in the assay on MV4-11, in the assay with MCF-10A and in the assay with MCF7 [11] was 0.53 to 14.6 µM in each case.
Consider `C[C@@H]1CC[C@@]2(OC1)O[C@H]1C[C@H]3[C@@H]4CC=C5C[C@@H](OCc6cn(-c7ccccc7[N+](=O)[O-])nn6)CC[C@]5(C)[C@H]4CC[C@]3(C)[C@H]1[C@@H]2C`, for which the half-inhibitory concentration (IC50) in the assay with HBL-100, with A549 [1], in the assay with HCT-116 [2] and in the assay on HT-29 [3] was 5.16 to 9.44 µM each time.
As to `C=CCC1CN2CCC1CC2[C@H](O)c1cc(-c2cn(-c3ccc(O)cc3)nn2)nc2ccc(OC)cc12` (some centres undefined), the IC50 with DU-145 [8], in the assay with A549 [9], with HT-29 [10], with MV4-11, with MCF-10A and in the assay with MCF7 [11] was 0.53 to 14.6 µM in each case.
With `CC[C@@]1(O)C(=O)OCc2c1cc1n(c2=O)Cc2cc3ccccc3nc2-1` [CAMPTOTHECIN], the IC50 in the assay with A549 [4], with HCT-116 [5], in the assay with HT-29 [6] and with MCF7 [7] was 0.03 to 0.8 µM each time.
In the case of `C[C@@H]1CC[C@@]2(OC1)O[C@H]1C[C@H]3[C@@H]4CC=C5C[C@@H](O)CC[C@]5(C)[C@H]4CC[C@]3(C)[C@H]1[C@@H]2C` [DISOGENIN], the IC50 with HBL-100, in the assay on A549 [1], with HCT-116 [2] and with HT-29 [3] was 10.8 to 13.3 µM throughout.
Turning to `COc1cc([C@@H]2c3cc4c(cc3[C@@H](O[C@@H]3O[C@@H]5CO[C@@H](C)O[C@H]5[C@H](O)[C@H]3O)[C@H]3COC(=O)[C@H]23)OCO4)cc(OC)c1O` [ETOPOSIDE], the concentration for half-maximal inhibition (IC50) in the assay on SW480 fell in the range of 0.31 to 32.8 µM; in the assay on SK-OV-3, 6.94 to 50 µM; in the assay with KB, 11.8 to 15.7 µM; with HepG2 [12] it was 11.8 to 15.7 µM; in the assay with A549 [13], 6.94 to 50 µM; in the assay on MCF7 [14], 6.94 to 50 µM. For the same compound, the half-inhibitory concentration (IC50) in the assay on DU-145 [15] is 6.94 to 50 µM; in the assay with HeLa [16], 6.94 to 50 µM; with A549 [1], 0.31 to 32.8 µM; in the assay on HL-60, 8.12 to 32.8 µM; with DU-145 [17], 9.8 µM; in assay [19] it was 0.31 to 32.8 µM. Also, the IC50 with MCF7 [20] is 0.31 to 32.8 µM; in the assay on MCF7-DOX it was 6.94 to 50 µM; in the assay on HepG2 [21] it was 6.94 to 50 µM. Further, the concentration for 50% growth inhibition (GI50) turned out to be 7.9 µg/mL (≈ 13.4 µM) in the assay on T47D and 7.5 µg/mL (≈ 12.7 µM) in the assay with MCF7 [18].
On to `COc1cc2c(Oc3ccc(NC(=O)C4(C(=O)Nc5ccc(F)cc5)CC4)cc3F)ccnc2cc1OCCCN1CCOCC1` [FORETINIB], for which the concentration for half-maximal inhibition (IC50) in the assay with HepG2 [22], in the assay on A549 [23] and in the assay on MCF7 [18] was 2.4 to 4.7 µM each time.
On to `COc1ccc2c(c1)[nH]c1c(C)nccc12` [HARMINE], for which the half-maximal inhibitory concentration (IC50) in the assay on PC-3, in the assay on HGC-27, with HT-29 [3] and in the assay with MCF7 [18] was 3.52 to 24.4 µM throughout.
Regarding `CC/C(=C(\c1ccccc1)c1ccc(OCCN(C)C)cc1)c1ccccc1` [TAMOXIFEN], the IC50 with MDA-MB-231 is 11.2 µM; with DU-145 [8], 10.9 to 18.6 µM; in the assay on HEK293, more than 50 µM; in the assay with HeLa [24], 10.9 to 18.6 µM; in the assay with A549 [9], 10.9 to 18.6 µM; in the assay on MCF7 [11] it was 10.9 to 18.6 µM.

The term IC50 denotes the point on the concentration scale where inhibition reaches its midpoint. As a reminder, the GI50 is the concentration at which growth is held to half of that of the control.
